EP1401829B1, “NOVEL HETEROCYCLIC ANTIBACTERIAL COMPOUNDS” (Microbiotix, Inc., priority 2001, dated 2002)
Values after ≈ are worked out from the molar mass of the structure shown.

How the values were obtained:
MRSA1094 = assay: MIC against clinically relevant strains; assay type: cell-based; details: Staphylococcus aureus; methicillin resistant S. aureus strain
Method: (§1) The following methods were used to characterize representative compounds. Minimal Inhibitory Concentration (MIC) determinations. MIC values were determined in 96 well plates, with bacterial growth monitored at OD 600 nm in 200µl following an initial bacterial seeding at approximately 1x10^5 colony forming units (CFU)/ml. Each drug is evaluated at five concentrations, with five data points at each dilution. MIC values (µg/ml) were determined against actively growing cultures in Heart-Brain Infusion (HBI) medium. Cell growth in cultures supplemented with a test compound was calculated as a percent of control at OD 600 nm after 16 to 18 hours at 37°C. This plate format conserves test compound and provides precise, quantitative data with low standard deviation determinations. Polymerase IIIC (Pol IIIC) assay. DNA polymerase activity (or inhibition thereof) was measured in a 96-well plate format. B. subtilis Pol IIIC was isolated as described by Hammond and Brown (Protein Expr. Purif., 3: 65-70 (1992)). Each 25 µl assay contained 30 mM Tris, pH 7.5, 10 mM magnesium acetate, 4 mM dithiothreitol, 20% glycerol, with 25 µM dATP, dCTP, dGTP and 10 µM dTTP (^3H-labelled at 1.44 Ci/mmole) and 0.4 mg/ml activated calf thymus DNA as substrates, as described previously (see Barnes et al, op. cit). Assays were initiated by the addition of 0.025 to 0.06 units of enzyme 1 unit is the amount required to incorporate 250 pmoles of [^3H] dTMP in a standard assay), incubated for 10 minutes at 30°C and terminated by the addition of 200 µl of cold 10% trichloroacetic acid (TCA),10 mM sodium pyrophosphate. Precipitated labeled DNA was collected on glass fiber filter plates, washed, dried, and counted in a liquid scintillation counter. Determination of Ki values. DNA polymerase activity was measured in a 96-well plate format in the absence of dGTP or dATP, depending on the structure of the test compound. Each 25 µl assay contained 30 mM Tris, pH 7.5, 10 mM magnesium acetate, 4 mM dithiothreitol, 20% glycerol, with 25 µM dATP, dCTP, and 10 µM dTTP (^3H-labelled at 1.44 Ci/mmole) and 0.4 mg/ml activated calf thymus DNA as substrates, as described previously. To each well were added 2 µl of compound solution to give final concentrations ranging from 20 - 0.027 µg/ml in the assay. Assays were initiated by the addition of 0.025 to 0.06 units of enzyme (1 unit is the amount required to incorporate 250 pmoles of [^3H] dTMP in a standard assay), incubated for 10 minutes at 30 °C and terminated by the addition of 200 µl of cold 10% trichloroacetic acid, 10 mM sodium pyrophosphate. Precipitated labeled DNA was collected on glass fiber filter plates, washed, dried, and counted in a liquid scintillation counter. Ki is the concentration of test compound that reduces the control polymerase IIIC activity by 50 percent.
(§2) Compounds were also tested for antibacterial activity against certain clinically relevant strains, e.g., methicillin sensitive (MSSA) and methicillin resistant (MRSA) strains of Staphylococcus aureus.

MRSA1132 = assay: MIC against clinically relevant strains; assay type: cell-based; details: Staphylococcus aureus; methicillin resistant S. aureus strain
Method: as §1, §2

MRSA 1123 = assay: MIC against clinically relevant strains; assay type: cell-based; details: Staphylococcus aureus, methicillin resistant S. aureus strain
Method: as §1, §2

E. coli = assay: Minimal Inhibitory Concentration (MIC) determination, 96 well plates; assay type: cell-based, Escherichia coli; details: Escherichia coli; HBI medium, 16 to 18 hours at 37°C; read-out: MIC (µg/ml) E. coli
In short: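 Cultures seeded at approximately 1x10^5 CFU/ml in Heart-Brain Infusion medium were exposed to five compound concentrations, five data points each, for 16 to 18 hours at 37°C. Growth at OD 600 nm was expressed as percent of control, and MIC values are given in µg/ml.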

E. fecium = assay: as above; assay type: cell-based, Enterococcus fecium; details: Enterococcus; HBI medium, 16 to 18 hours at 37°C; read-out: MIC (µg/ml) E. fecium
In short: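 Broth growth in Heart-Brain Infusion medium, seeded at about 1x10^5 CFU/ml, 16 to 18 hours at 37°C. Growth read at OD 600 nm as percent of untreated control; five concentrations per drug, five data points each, MIC reported in µg/ml.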

SMILES | MIC (MRSA1094) | MIC (MRSA1132) | MIC (MRSA 1123) | MIC (E. coli) | MIC (E. fecium)
CCc1cc(Nc2cc(=O)n(CCCCN3CCN(c4cc5c(cc4F)c(=O)c(C(=O)O)cn5C4CC4)CC3)c(=O)[nH]2)ccc1C [Compound 2, 3-{4-[1-(1-cyclopropyl-3-carboxy-4-oxo-6-fluoro-7-quinolyl)-4-piperazinyl]butyl}-6-(3-ethyl-4-methylanilino)uracil] | 0.625 µg/mL (≈ 0.991 µM) | 0.625 µg/mL (≈ 0.991 µM) | 0.625 µg/mL (≈ 0.991 µM) | 2.5 µg/mL (≈ 3.96 µM) | 1.25 µg/mL (≈ 1.98 µM)
CCc1cc(Nc2cc(=O)n(CCCCN3CCN(c4cc5c(cc4F)c(=O)c(C(=O)O)cn5C4CC4)CC3)c(=O)[nH]2)ccc1C.CS(=O)(=O)O [Compound 10, 3-{4-[1-(1-cyclopropyl-3-carboxy-4-oxo-6-fluoro-7-quinolyl)-4-piperazinyl]butyl}-6-(3-ethyl-4-methylanilino)uracil methanesulfonate] | 1.25 µg/mL | 0.625 µg/mL | 1.25 µg/mL | 5 µg/mL | 2.5 µg/mL
CCc1cc(Nc2cc(=O)n(CCCCN3CCN(c4c(F)cc5c(=O)c(C(=O)O)cn(C6CC6)c5c4F)CC3C)c(=O)[nH]2)ccc1C (stereo not drawn) [Compound 70, 3-{4-[1-(1-cyclopropyl-3-carboxy-4-oxo-6,8-difluoro-7-quinolyl)-3-methyl-4-piperazinyl]butyl}-6-(3-ethyl-4-methylanilino)uracil] | 0.94 µg/mL (≈ 1.42 µM) | 0.31 µg/mL (≈ 0.468 µM) | 0.94 µg/mL (≈ 1.42 µM) | > 80 µg/mL | 1.25 µg/mL (≈ 1.89 µM)
